The values below come from US11584727B2, “2-thioxothiazolidin-4-one derivatives active as transthyretin ligands and uses thereof” (BSIM Therapeutics, S.A., priority 2014, dated 2023).

By IC50 is commonly meant the concentration at which inhibition is half-maximal. A low value points to inhibition by little substance. What is called melting point is the temperature, or range, at which the solid turns liquid.

For data set [1], the target named is T1, wild type transthyretin (WT-TTR) (Homo sapiens, UniProt P02766).
T1 construct: made in house; host or cells: E. coli BL21 (DE3), pET23a plasmid
Kind of data set: WT-TTR amyloid fibril formation assay (turbidimetry, acid-induced). In kind it is biochemical. The conditions noted are these: pH 4.4, 72 hours; for Fibril Formation (%): WT-TTR 3.6 μM, 1:1 TTR-compound stoichiometry, 37° C., normalized to no-compound control (100%); for IC50: WT-TTR fixed at 3.6 μM, ten compound concentrations. As to the method:
(§1) The first set of evaluations is based on a fast, stagnant fibril formation assay that is used for the early screening of compounds, be they virtual screening hits or newly synthesized analogues. In this assay, a solution of the compound under test at 1.8, 3.6 or 7.2 μM is added to a solution of TTR at 3.6 μM, so that there is enough compound to bind to either one or both of TTR's binding sites. The pH of the resulting solution is then lowered to 4.4 to promote amyloidogenesis. The process of amyloid fibril formation over time is assessed by turbidimetry measurements at three different wavelengths (405, 450 and 490 nm, or at 550, 600 and 650 nm when the compound absorbs light at the previous wavelengths), using a spectrophotometer endowed with a BioTek microplate reader. The extent of fibril formation of each mixture is determined by normalizing a sample with the protein (TTR), in absence of compounds, which, at the end of 72 hours, represents 100% of amyloid fibril formation. In each experiment, each compound concentration is tested in triplicate. For each compound concentration and incubation time, the arithmetic mean of the triplicate experiments is calculated, as well as the arithmetic mean of the three measured wavelengths. High activity can be defined as a percentage of fibril formation below 10% at compound concentration 7.2 μM (TTR:compound stoichiometry 1:2) and below 40% at 3.6 μM (TTR:compound stoichiometry 1:1).
The in vitro activity of the compounds was assessed through a biochemical assay based on turbidimetry measurements, in which fibril formation is induced by acidification of the solution to pH 4.4 after incubation with the hit compound to be tested. The amount of amyloid fibrils formed is then monitored throughout 72 hours. Further details on this assay are provided in the “Evaluation of amyloid inhibition in vitro” subsection in “Materials and Methods”.
Experimental evaluation of the in vitro activity of virtual screening hits against amyloid fibril formation by TTR was carried out using a biochemical assay based on turbidimetry measurements. In this assay, fibril formation is induced by acidification of the solution to pH 4.4 after incubation with the hit compound to be tested. The amount of amyloid fibrils formed is monitored over 72 hours. Further details on the assay are provided in the “Evaluation of amyloid inhibition in vitro” subsection below.
(§2) Purchased virtual screening hits and all synthesized (optimization) derivatives were dissolved in DMSO to a final concentration of 10.8 mM to provide a primary stock solution. Several secondary stock solutions were prepared in DMSO by dilution of the primary stock solution and the concentrations were chosen depending on the effectiveness of the compound in inhibiting the TTR amyloid fibril formation.
(§3) The fibril formation assay was adapted to run in a high-throughput screening mode. For this purpose, 96-well microplates were used with a final assay volume of 100 μL.
(§4) One microLitre (μL) of different compound secondary stock solutions was added to 50 μL of a 7.2 μM wild type TTR (WT-TTR) or Val122Ile-TTR (V122I-TTR) solutions in 10 miliMolar (mM) sodium phosphate buffer, 100 mM KCl and 1 mM EDTA, pH 7.2, previously dialyzed against the same buffer solution. After 30 minutes of incubation at room temperature, the pH of the mixture was lowered to 4.4 with 49 μL of 200 mM acetate buffer, 100 mM KCl and 1 mM EDTA, pH 4.3.
The mixtures were incubated at 37° C. during 72 hours. Turbidity at 405 nm, 450 nm and 490 nm (or at 550, 600 and 650 nm when the test compound absorbs light at the previous wavelengths) was measured over time (0, 17, 24, 41, 48, 65 and 72 hours) using a BioTek Microplate Spectrophotometer to evaluate the extent of fibril formation. Immediately before the turbidity measurements, the mixtures were gently shacked during 1 minute to homogenize well and not damage the formed amyloid aggregates and fibrils.

Data set [2] has as its target Val122Ile transthyretin (V122I-TTR) (Homo sapiens, UniProt P02766, V142I). Kind of data set: V122I-TTR amyloid fibril formation assay (turbidimetry, acid-induced). Conditions: pH 4.4, 72 hours; for Fibril Formation (%): V122I-TTR 3.6 μM, 37° C.; for IC50: V122I-TTR fixed at 3.6 μM, ten compound concentrations. In kind it is biochemical. As to the method:
as §1, §2, §3, §4
The mixtures were incubated at 37° C. during 72 hours. Turbidity at 405 nm, 450 nm and 490 nm (or at 550, 600 and 650 nm when the test compound absorbs light at the previous wavelengths) was measured over time (0, 17, 24, 41, 48, 65 and 72 hours) using a BioTek Microplate Spectrophotometer to evaluate the extent of fibril formation. Immediately before the turbidity measurements, the mixtures were gently shacked during 1 minute to homogenize well and not damage the formed amyloid aggregates and fibrils. The final turbidity was calculated as an average of the three wavelengths measured.
In addition, control samples containing TTR with no inhibitor and 1% DMSO, as well as inhibitor in absence of TTR were tested and analyzed.
The extent of amyloid fibril formation data was normalized to TTR in the absence of inhibitor, assigned to be 100% fibril formation (or 0% amyloid inhibition) at the end of the experiment.
The extent of amyloid fibril formation throughout 72 hours was determined as described in the “Evaluation of amyloid inhibition in vitro” subsection above.
IC50 values were calculated from the inhibition curves obtained by fitting the values by a nonlinear curve method using the OriginPro7 (OriginLab Corporation, USA).

In turn, `O=C(O)CN1C(=O)/C(=C/c2cc(F)cc(F)c2)SC1=S` [AT50-A12, (Z)-3-hydroxycarbonylmethyl-5-(3′,5′-difluorophenylmethylidene)-2-thioxothiazolidin-4-one] had a melting point of 225 to 227 °C. For the same compound, in data set [1], the “Fibril Formation (%)” value came out at 44% and the IC50 is 2880 ± 240 nM. Moreover, in data set [2], the “Fibril Formation (%)” value came to 91% and the IC50 was determined as 7800 nM.

In the case of `Cc1cc(/C=C2\SC(=S)N(CCC(=O)O)C2=O)cc(C)c1O` [AT50-C16, (Z)-3-(2′-hydroxycarbonylethyl)-5-(4′-hydroxy-3′,5′-dimethylphenylmethylidene)-2-thioxothiazolidin-4-one], the melting point was in the range of 253 to 254 °C. In addition, in data set [1], the “Fibril Formation (%)” value was determined as 24% and the IC50 was 2290 ± 130 nM. In data set [2], the “Fibril Formation (%)” value turned out to be 41% and the midpoint of inhibition, the IC50, lay at 2710 nM.

`O=C(O)CCN1C(=O)/C(=C/c2cc(Cl)c(O)c(Cl)c2)SC1=S` [AT50-C15, (Z)-3-(2′-hydroxycarbonylethyl)-5-(3′,5′-dichloro-4′-hydroxyphenylmethylidene)-2-thioxothiazolidin-4-one] returned a melting point of 259 to 260 °C. Also, the “inhibitory activity against TTR amyloid fibril formation compared with reference compounds (in words)” value in data set [1] (TTR 3.6 μM) is “superior to that of 2OH-PCB80”. For the same compound, in data set [1], the “Fibril Formation (%)” value is given as 7% and inhibition was half-maximal at 1030 ± 100 nM (IC50). Besides, in data set [2], the “Fibril Formation (%)” value came to 17% and the IC50 is 1620 nM.

`O=C(O)CCN1C(=O)/C(=C/c2cc(Cl)cc(Cl)c2)SC1=S` [AT50-C14, (Z)-3-(2′-hydroxycarbonylethyl)-5-(3′,5′-dichlorophenylmethylidene)-2-thioxothiazolidin-4-one] registered a melting point of 245 to 247 °C. In addition, in data set [1], the “Fibril Formation (%)” value is listed as 26% and the IC50 was 1950 ± 260 nM. Moreover, in data set [2], the “Fibril Formation (%)” value is reported as 55% and the IC50 came to 4370 nM.

Compound `O=C(O)CN1C(=O)/C(=C/c2cc(Cl)cc(Cl)c2)SC1=S` [AT50-A05, (Z)-3-hydroxycarbonylmethyl-5-(3′,5′-dichlorophenylmethylidene)-2-thioxothiazolidin-4-one] registered a melting point of 272 to 273 °C. Besides, in data set [1], the “Fibril Formation (%)” value was determined as 17% and 1620 ± 130 nM corresponded to half-maximal inhibition (IC50). In data set [2], the “Fibril Formation (%)” value was found to be 28% and the midpoint of inhibition, the IC50, lay at 2320 nM.

Consider `O=C(O)CCCN1C(=O)/C(=C/c2cc(Cl)c(O)c(Cl)c2)SC1=S` [AT50-C10, (Z)-5-(3′,5′-dichloro-4′-hydroxyphenylmethylidene)-3-(3′-hydroxycarbonylpropyl)-2-thioxothiazolidin-4-one], for which the melting point is 247 to 249 °C. In addition, in data set [1], the “Fibril Formation (%)” value was determined as 27% and the IC50 was 1870 ± 160 nM. In addition, in data set [2], the “Fibril Formation (%)” value was 37% and the IC50 was found to be 2460 nM.

`O=C(O)CCCN1C(=O)/C(=C/c2cc(F)c(O)c(F)c2)SC1=S` [AT50-C09, (Z)-5-(3′,5′-difluoro-4′-hydroxyphenylmethylidene)-3-(3′-hydroxycarbonylpropyl)-2-thioxothiazolidin-4-one] yielded a melting point of 207 to 209 °C. Also, in data set [1], the “Fibril Formation (%)” value is 33% and the midpoint of inhibition, the IC50, lay at 2450 ± 350 nM. Also, in data set [2], the “Fibril Formation (%)” value is reported as 48% and the IC50 was 3190 nM.

`O=C(O)CCN1C(=O)/C(=C/c2cc(F)c(O)c(F)c2)SC1=S` [AT50-C13, (Z)-5-(3′,5′-difluoro-4′-hydroxyphenylmethylidene)-3-(2′-hydroxycarbonylethyl)-2-thioxothiazolidin-4-one]: the melting point lay within 216 to 217 °C. Moreover, in data set [1], the “Fibril Formation (%)” value turned out to be 32% and the IC50 is 2310 ± 450 nM. Further, in data set [2], the “Fibril Formation (%)” value was determined as 36% and the IC50 was determined as 2600 nM.

For `Cc1cc(/C=C2\SC(=S)N(CC(=O)O)C2=O)cc(C)c1O` [AT50-A17, (Z)-3-hydroxycarbonylmethyl-5-(4′-hydroxy-3′,5′-dimethylphenylmethylidene)-2-thioxothiazolidin-4-one], the melting point lay within 261 to 263 °C. In addition, in data set [1], the “Fibril Formation (%)” value was determined as 27% and it took 2370 ± 470 nM to reach half-maximal inhibition (IC50). Moreover, in data set [2], the “Fibril Formation (%)” value came out at 51% and half-maximal inhibition (IC50) required 3160 nM.

For the compound `Cc1cc(/C=C2\SC(=S)N(CCCC(=O)O)C2=O)cc(C)c1O` [AT50-C11, (Z)-5-(4′-hydroxy-3′,5′-dimethylphenylmethylidene)-3-(3′-hydroxycarbonylpropyl)-2-thioxothiazolidin-4-one], the melting point lay within 250 to 252 °C. In data set [1], the “Fibril Formation (%)” value is given as 26% and the IC50 was 2430 ± 1250 nM. Further, in data set [2], the “Fibril Formation (%)” value is 66% and the IC50 is 4520 nM.

For the compound `O=C(O)CN1C(=O)/C(=C/c2ccc(O)cc2)SC1=S` [AT50-A11, (Z)-3-hydroxycarbonylmethyl-5-(4′-hydroxyphenylmethylidene)-2-thioxothiazolidin-4-one], the melting point is 213 to 214 °C. In addition, the “Fibril Formation (%)” value in data set [1] is recorded as 35%.

As to `O=C(O)CN1C(=O)/C(=C/c2cc(O)c(O)c(Cl)c2)SC1=S` [AT50-A01, (Z)-5-(3′-chloro-4′,5′-dihydroxyphenylmethylidene)-3-hydroxycarbonylmethyl-2-thioxothiazolidin-4-one], the melting point was 241 to 242 °C. Further, in data set [1], the “Fibril Formation (%)” value turned out to be 12% and the IC50 was 1450 ± 40 nM. Moreover, in data set [2], the “Fibril Formation (%)” value is reported as 29% and the IC50 worked out at 2340 nM.
